# Tests used:
# [1] = test system: RAW 264.7 cells; assay: AlamarBlue assay for cell viability (cytotoxicity); conditions: read-out: IC50 (cytotoxicity), RAW 264.7 macrophages, 24 h treatment, 6.25-100 µM tested
# [2] = test system: LPS-activated RAW 264.7 macrophages; assay: NO production inhibitory assay (Griess reaction); format: cell-based, murine; conditions: for ED50 (inhibition of LPS-induced NO production): RAW 264.7 macrophages, LPS 1 µg/ml, 24 h, Griess reaction; for NO production by LPS-activated cells: 2.5-40 µM, 30 min before and during LPS 1 µg/ml 24 h; for NO levels produced by non-activated cells: compound alone, no LPS (data not shown)
# Protocol: RAW 264.7 cells seeded in 24-well plates at a density of 5 × 10^5 cells/ml (1 ml) were incubated for 24 h with or without LPS (1 µg/ml) in the absence or presence of the test samples, then NO production was measured indirectly by analysis of nitrite levels using the Griess reaction.
# (§1) To investigate the inhibitory effect of compounds 1h, 1i, and 1n on the LPS-induced inflammatory response, NO levels in the supernatants of RAW 264.7 macrophages incubated with DMSO (vehicle) or compound 1h, 1i, or 1n for 30 min before, and during, incubation for 24 h with LPS (1 µg/ml) were measured by the Griess reaction. […] We next investigated their effect on the expression of iNOS, the NO producing enzyme, using Western blots.
# (§2) Figure 2 Effect of polyenylpyrrole derivatives on the expression of inflammatory mediators in LPS-stimulated RAW 264.7 macrophages. In (A) and (C), the cells (5 × 10^5/ml; 1 ml) were incubated for 30 min with 2.5-40 µM compound 1h, 1i, or 1n or DMSO (vehicle), then LPS (1 µg/ml) was added and incubation continued for 24 h, then NO (A) or IL-6 or TNF-α (C) in the culture medium was assayed by the Griess reaction or ELISA, respectively. In (B), cells (5 × 10^5/ml; 1 ml) were pretreated for 30 min with 2.5-40 µM compound 1h or DMSO, then LPS (1 µg/ml) was added and incubation continued for 24 h, then expression of iNOS and COX-2 was measured by Western blotting. The fold increase is the intensity of the band of interest divided by that of the actin band normalized to the corresponding value for the 0 LPS/0 inhibitor control.
# [3] = test system: LPS-activated RAW 264.7 macrophages; assay: iNOS and COX-2 expression by Western blot; format: cell-based, murine; conditions: 30 min pretreatment, LPS 24 h; for COX-2 expression / LPS-induced iNOS expression: 0-40 µM; for Concentration at which reduction of LPS-induced iNOS expression is significant: Western blot
# Protocol: Cells were washed twice with ice-cold phosphate-buffered saline (PBS) and lysed on ice for 5 min with lysis buffer (20 mM Tris-HCl, pH 7.5, 150 mM NaCl, 1 mM Na 2EDTA, 1 mM EGTA, 1% Triton X-100, 2.5 mM sodium pyrophosphate, 1 mM beta-glycerophosphate, 1 mM Na 3VO4, 1 µg/ml of leupeptin, 1 mM PMSF, protease inhibitor cocktail). The lysate was then centrifuged at 12,000 x g at 4 °C for 10 min and the pellet discarded. Proteins in the supernatant were separated by SDS-PAGE and electrotransferred to a PVDF membrane (EMD Millipore Corporation), which was then blocked by incubation for 1 h at room temperature in blocking buffer [(5% nonfat milk in PBS containing 0.1% Tween 20 (PBST)], then incubated for 2 h at room temperature with the primary antibody diluted in blocking buffer. After three washes in PBST, the membrane was incubated for 1 h at room temperature with an appropriate HRP-conjugated secondary antibody diluted in blocking buffer and developed using an enhanced chemiluminescence Western blot detection system (EMD Millipore Corporation).
# as §1, §2
# [4] = test system: LPS-activated RAW 264.7 macrophages; assay: IL-6 and TNF-α secretion by ELISA; format: cell-based, murine; conditions: for IL-6 production by LPS-activated cells / TNF-α secretion by LPS-activated cells: RAW 264.7, 2.5-40 µM, LPS 1 µg/ml 24 h; for Background levels of IL-6 and TNF-α in non-stimulated macrophages: RAW 264.7, no LPS (data not shown)
# Protocol: The effects of the test samples on IL-1β, TNF-α, and IL-6 production were measured by ELISA according to the manufacturer’s instructions. In brief, 50 µl of biotinylated antibody reagent and 50 µl of supernatant were added to a stripwell plate precoated with anti-mouse IL-1β, TNF-α, or IL-6 antibodies, which was then incubated at room temperature for 2 h. After washing the plate three times with washing buffer, 100 µl of diluted streptavidin-HRP concentrate was added to each well and the plate incubated at room temperature for 30 min. The washing process was repeated, then 100 µl of a premixed tetramethylbenzidine substrate solution was added to each well and the plate incubated at room temperature in the dark for 30 min. After addition of 100 µl of stop solution to each well, the absorbance at 450 nm of each well was measured on a microplate reader.
# as §1, §2
# [5] = test system: ATP-activated LPS-primed J774A.1 macrophages; assay: Intracellular ROS production (DCF fluorescence), ATP-induced; format: cell-based, murine
# Protocol: Intracellular ROS production was measured by detecting the fluorescence intensity of the 2’, 7’-dichlorofluorescein, the oxidation product of 2’, 7’-dichlorofluorescein diacetate (Molecular Probes, Eugene, OR). […] In another, J774A.1 macrophages (5 × 10^5/ml; 0.1 ml) were incubated with LPS (1 µg/ml) for 6 h, then vehicle, compound 1h (20 µM), or DPI (25 µM) was added for 30 min. 2’, 7’-dichlorofluorescein diacetate (2 µM) was then added for 30 min before incubation with ATP (5 mM) for the indicated time; while, in another, the order of addition of compound1h/DPI and LPS was reversed. The fluorescence intensity of 2’, 7’-dichlorofluorescein was detected at an excitation wavelength of 485 nm and an emission wavelength of 530 nm on a microplate absorbance reader (Bio-Rad Laboratories, Inc).
# In (A), J774A.1 macrophages (1 × 10^6/ml; 1 ml) were incubated with LPS (1 µg/ml) for 6 h, then with compound 1h (20 µM), the NADPH oxidase inhibitor DPI (25 µM), or DMSO (vehicle) for 30 min in the continued presence of LPS, then 2’,7’-dichlorofluorescein diacetate (2 µM) was added for 30 min, followed by ATP (5 mM) for the indicated time, then ROS levels were determined by measuring the mean fluorescence intensity (MFI) of the fluorophore carboxyl-DCF and expressing this value relative to that at time zero. In (B), J774A.1 macrophages (1 × 10^6/ml; 1 ml) were incubated with compound 1h (20 µM), DPI (25 µM), or DMSO (vehicle) for 30 min, then LPS (1 µg/ml) was added for 6 h; the cells were then incubated with 2’,7’-dichlorofluorescein diacetate (2 µM) for 30 min, then with ATP (5 mM) for the indicated time and ROS levels were measured by detection of the fluorescence intensity of the fluorophore carboxyl-DCF and expressed relative to that at time zero.
# [6] = test system: LPS-activated RAW 264.7 macrophages; assay: Intracellular ROS production (DCF fluorescence), LPS-induced; format: cell-based, murine; conditions: RAW 264.7, 30 min pretreatment; compound 1h 20 µM, NAC 10 mM
# Protocol: Intracellular ROS production was measured by detecting the fluorescence intensity of the 2’, 7’-dichlorofluorescein, the oxidation product of 2’, 7’-dichlorofluorescein diacetate (Molecular Probes, Eugene, OR). In one study, RAW 264.7 macrophages (5 × 10^5/ml; 0.1 ml) were incubated with vehicle, compound 1h (20 µM), or NAC (10 mM) for 30 min, then 2’, 7’-dichlorofluorescein diacetate (2 µM) was added for 30 min, then LPS was added for the indicated time. In another, J774A.1 macrophages (5 × 10^5/ml; 0.1 ml) were incubated with LPS (1 µg/ml) for 6 h, then vehicle, compound 1h (20 µM), or DPI (25 µM) was added for 30 min. 2’, 7’-dichlorofluorescein diacetate (2 µM) was then added for 30 min before incubation with ATP (5 mM) for the indicated time; while, in another, the order of addition of compound1h/DPI and LPS was reversed. The fluorescence intensity of 2’, 7’-dichlorofluorescein was detected at an excitation wavelength of 485 nm and an emission wavelength of 530 nm on a microplate absorbance reader (Bio-Rad Laboratories, Inc).
# To test whether compound 1h exerted its anti-inflammatory effect on LPS-activated cells by downregulation of ROS production, intracellular ROS production in LPS-activated RAW 264.7 macrophages was measured.
# Figure 5 Effect of compound 1h on ROS production and MAPK phosphorylation in LPS-activated macrophages. […]
# [7] = in vitro; conditions: mouse
# [8] = test system: various cancer cells; parameters: method as in PMID 16468746; conditions: cited from earlier work
smiles,measurement,setting,value
COc1cc(/C=C/C=C/C=C/C=C/c2[nH]ccc2Cl)oc(=O)c1 [1a],IC50,[1],< 10 µM
CCCCc1c(OC)cc(/C=C/C=C/C=C/C=C/c2[nH]ccc2Cl)oc1=O [1c],IC50,[1],< 10 µM
COc1cc(/C(C)=C/C=C/C=C/C=C/c2[nH]ccc2Cl)oc(=O)c1 [1d],IC50,[1],< 10 µM
CC\C(=C/C=C/C=C/C=C/c1[nH]ccc1Cl)c1cc(OC)c(C)c(=O)o1 [1f],IC50,[1],< 10 µM
CCCCc1c(OC)cc(/C(C)=C/C=C/C=C/C=C/c2[nH]ccc2Cl)oc1=O [1g],IC50,[1],< 10 µM
COc1cc(/C=C/C=C/C=C/C=C/c2sccc2Cl)oc(=O)c1 [1j],ED50 (inhibition of LPS-induced NO production),[2],29 ± 6 µM
same,IC50,[1],> 100 µM
COc1cc(/C=C/C=C/C=C/C=C/c2sccc2Cl)oc(=O)c1C [1k],ED50 (inhibition of LPS-induced NO production),[2],18 ± 2 µM
same,IC50,[1],> 100 µM
COc1cc(/C=C/C=C/C=C/C=C/c2ccccc2Cl)oc(=O)c1C [1l],ED50 (inhibition of LPS-induced NO production),[2],18 ± 3 µM
same,IC50,[1],> 100 µM
COc1cc(/C=C/C=C/C=C/C=C/c2cccc(Cl)c2)oc(=O)c1C [1m],ED50 (inhibition of LPS-induced NO production),[2],26 ± 3 µM
same,IC50,[1],> 100 µM
COc1cc(/C=C/C=C/C=C/C=C/c2c(Cl)ccn2S(C)(=O)=O)oc(=O)c1C [1n],COX-2 expression,[3],did not affect expression of COX-2
same,LPS-induced iNOS expression,[3],reduced LPS-induced iNOS expression
same,Concentration at which reduction of LPS-induced iNOS expression is significant,[3],40 µM
same,NO production by LPS-activated cells,[2],decreased NO production by LPS-activated cells in a dose-dependent manner
same,ED50 (inhibition of LPS-induced NO production),[2],17 ± 2 µM
same,NO levels produced by non-activated cells,[2],did not alter NO levels produced by non-activated cells
same,IC50,[1],> 100 µM
same,IL-6 production by LPS-activated cells,[4],significantly decreased IL-6 production by LPS-activated cells in a dose-dependent manner
same,TNF-α secretion by LPS-activated cells,[4],only slightly and non-significantly reduced
same,Background levels of IL-6 and TNF-α in non-stimulated macrophages,[4],none of the three compounds altered background levels of IL-6 and TNF-α
"c1ccc2c(c1)[I+]c1ccccc1-2 [DPI, diphenylene iodonium, reference compound]","ATP-induced ROS production, compound added after LPS priming","[5]; J774A.1, LPS 6 h, then compound 1h 20 µM or DPI 25 µM 30 min, ATP 5 mM 0-40 min",inhibited both processes
same,"ATP-induced ROS production, compound added 30 min before LPS priming","[5]; J774A.1, compound 1h 20 µM or DPI 25 µM 30 min, then LPS 6 h, then ATP 5 mM",inhibited both processes
"CC(=O)N[C@@H](CS)C(=O)O [NAC, N-acetyl cysteine, reference compound]",LPS-stimulated ROS production,[6],reduced ROS production
"COc1cc(/C=C/C=C/C=C/C=C/c2[nH]ccc2Cl)oc(=O)c1C [compound 1b, auxarconjugatin A]",IC50,[7],< 10 µM
"COc1cc(/C(C)=C/C=C/C=C/C=C/c2[nH]ccc2Cl)oc(=O)c1C [compound 1e, 12E-isorumbrin]",IC50,[7],< 10 µM
same,Cytotoxicity for various cancer cells,[8],shown to be cytotoxic for various cancer cells
Cc1c(O)cc(/C=C/C=C/C=C/C=C/c2[nH]ccc2Cl)oc1=O [compound 1i],COX-2 expression,[3],did not affect expression of COX-2
same,LPS-induced iNOS expression,[3],reduced LPS-induced iNOS expression
same,Concentration at which reduction of LPS-induced iNOS expression is significant,[3],40 µM
same,NO production by LPS-activated cells,[2],decreased NO production by LPS-activated cells in a dose-dependent manner
same,ED50 (inhibition of LPS-induced NO production),[2],16 ± 2 µM
same,NO levels produced by non-activated cells,[2],did not alter NO levels produced by non-activated cells
same,IC50,[1],> 100 µM
same,IL-6 production by LPS-activated cells,[4],significantly decreased IL-6 production by LPS-activated cells in a dose-dependent manner
same,TNF-α secretion by LPS-activated cells,[4],only slightly and non-significantly reduced
same,Background levels of IL-6 and TNF-α in non-stimulated macrophages,[4],none of the three compounds altered background levels of IL-6 and TNF-α
